Patent US4767778A (Institut National de la Sante et de la Recherche Medicale …, priority 1985, dated 1988)
Like-named read-outs stand apart in the source and are kept apart here.

Columns and labels:
H3 receptors [1] = experiment: Inhibition of synthesis of histamine in slices of human cerebral cortex and posterior hypothalamus; assay type: cell-based; details: slices of human cerebral cortex and posterior hypothalamus (mamillary)
H3 autoreceptors [2] = biological target: T1, H3 autoreceptors (Rattus norvegicus, UniProt Q9QYN8)
H1 /H2 receptors = details: histamine = 100%; cited from earlier work
H3 autoreceptors [3] = biological target: T1, H3 autoreceptors; details: slices of rat brain
H3 receptors [4] = experiment: Inhibition of the synthesis of (3H) histamine in rats in vivo; set-up: species or system rat; details: for (3) histamine (% of the total radioactivity × 10^-3), Treated: 10 minutes

T1 sequence (Q9QYN8 whole entry): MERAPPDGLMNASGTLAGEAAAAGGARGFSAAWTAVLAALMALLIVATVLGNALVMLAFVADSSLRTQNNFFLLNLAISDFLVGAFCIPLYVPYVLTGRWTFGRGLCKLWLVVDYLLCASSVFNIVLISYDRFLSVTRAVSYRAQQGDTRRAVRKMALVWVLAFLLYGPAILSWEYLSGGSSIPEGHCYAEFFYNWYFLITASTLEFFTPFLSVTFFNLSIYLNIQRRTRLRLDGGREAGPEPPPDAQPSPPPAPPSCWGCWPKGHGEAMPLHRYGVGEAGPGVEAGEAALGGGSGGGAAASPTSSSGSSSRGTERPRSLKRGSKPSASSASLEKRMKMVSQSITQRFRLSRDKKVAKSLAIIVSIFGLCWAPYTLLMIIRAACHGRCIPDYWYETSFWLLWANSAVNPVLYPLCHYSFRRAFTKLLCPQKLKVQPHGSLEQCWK

Row | SMILES | EC50 (H3 autoreceptors [2]) [nM] | Activity relative to histamine (%) H3 receptors (H3 autoreceptors [2]; histamine = 100% (EC50 […] nM)) [%] | Activity relative to histamine (%) H1 /H2 receptors (H1 /H2 receptors) | further results
1 | CC(N)Cc1c[nH]cn1 (racemic) [compound 1, 4-(2-aminopropyl)-imidazole] |  |  |  | effect on synthesis of histamine (H3 receptors [1]): inhibits
2 | CC(CN)c1c[nH]cn1 (racemic) [3 (R, S), 4-(1-methyl 2-aminoethyl)-imidazole] | 20 ± 5 | 120 | 2-2% | 
3 | NC1CC1c1c[nH]cn1 (stereo not shown) [compound 5, 2-(4-imidazolyl)-cyclopropylamine] | < 100 | > 60 | < 1% | 
4 | C[C@](N)(Cc1c[nH]cn1)C(=O)O (racemic) [6 (R, S), α-methylhistidine] | 1000 ± 500 | 6 | inactive | 
5 | CC(C)(N)Cc1c[nH]cn1 [compound 2, 4-(2-methyl 2-aninopropyl)-imidazole] | 20 ± 10 |  | < 1% | Activity relative to histamine (%) H3 receptors (H3 autoreceptors [2]): 300%
6 | NCCc1c[nH]cn1 [histamine, reference compound] |  |  |  | maximal inhibition of the stimulation by potassium of the synthesis of (3H) histamine (H3 autoreceptors [3]): approximately 70%; maximal inhibition of release of (3H) histamine (H3 autoreceptors [2]; slices of rat brain): approximately 60%
7 | CC(C)(CN)c1c[nH]cn1 [compound 4, 4-(1,1-dimethyl 2-aminoethyl)-imidazole] | 50 ± 20 | 120 | < 0.1% | 
8 | C[C@@H](N)Cc1c[nH]cn1 [1 (R), 4-(2-aminopropyl)-imidazole] |  |  |  | effect on the synthesis of (3H) histamine in the brain and peripheral tissues (H3 receptors [4]; 10 mg/kg, simultaneous with (3H)-L-histidine, completely reversed by an H3 antagonist): significantly reduces; (3) histamine (% of the total radioactivity × 10^-3), Treated (H3 receptors [4]; Cerebral cortex, 10 mg/kg i.v. with (3H)-L-histidine, controls 95 ± 6): 53 ± 6 % of the total radioactivity ×; Variation (%) (H3 receptors [4]; Cerebral cortex, 10 mg/kg i.v., p < 0.01): -45%; (3) histamine (% of the total radioactivity × 10^-3), Treated (H3 receptors [4]; Hypothalmus, 10 mg/kg i.v., controls 272 ± 11): 185 ± 32 % of the total radioactivity ×; Variation (%) (H3 receptors [4]; Hypothalmus, 10 mg/kg i.v., p < 0.01): -32%; Variation (%) (H3 receptors [4]; Kidneys, 10 mg/kg i.v., p < 0.05): -30%; (3) histamine (% of the total radioactivity × 10^-3), Treated (H3 receptors [4]; Lungs, 10 mg/kg i.v., controls 138 ± 10): 94 ± 10 % of the total radioactivity ×; Variation (%) (H3 receptors [4]; Lungs, 10 mg/kg i.v., p < 0.05): -32%; (3) histamine (% of the total radioactivity × 10^-3), Treated (H3 receptors [4]; Spleen, 10 mg/kg i.v., controls 60 ± 8): 42 ± 5 % of the total radioactivity ×; Variation (%) (H3 receptors [4]; Spleen, 10 mg/kg i.v., p < 0.05): -30%
